Experiments:
Assay in all cases: antifungal disc diffusion assay
Type in all cases: cell-based
Candida albicans = test system: Candida albicans
Protocol: (§1) The antifungal activity of the compounds may be detected in an antifungal assay employing disc diffusion methods against a panel of representative yeasts, filamentous fungi (molds) and bacteria.
(§2) For carrying out the assay, seeded assay plates are prepared in the following manner according to the type of assay strain.
(§3) Inocula for yeasts and Streptomyces strains are prepared from overnight broth cultures then diluted into potato dextrose […] to a final concentration of either 40 percent or 70 percent transmission at 660 nm.
(§4) For strains of Candida albicans and Saccharomyces cerevisiae, sterile saline is employed in place of potato dextrose broth. Assay plates are prepared by diluting the inoculum into appropriate molten agar medium, cooled to 45° C. to obtain a final concentration of 4 percent.
(§5) The seeded agar media thus prepared are dispensed into Petri dishes for assays (11 milliliters per dish).
(§6) The samples to be tested for production of antifungal agent are applied to 6.2 mm. filter paper discs (25 microliter/disc) and air dried at 24° C. When the sample to be tested is crude broth, it may be centrifuged prior to application. The discs bearing the material to be tested are then applied employing sterile conditions to be seeded assay plates and the sample rewet with 25 percent sterile aqueous dimethysulfoxide (25 μl/disc). The assay plates are then incubated at either 28° C. or 37° C. for 24 hours.
(§7) Following incubation, the inhibition zones are measured and recorded. The measurements are made from the extreme edge where growth differs from the background zone. The zones are noted as to appearance as fuzzy edge and clear center, hazy throughout, slightly hazy, very hazy or ringed.

Candida neoformans = test system: Candida neoformans
Protocol: as §1, §2, §3, §5, §6, §7

Candida parapsilosis = test system: Candida parapsilosis
Protocol: as §1, §2, §3, §5, §6, §7

Candida pseudotropicalis = test system: Candida pseudotropicalis
Protocol: as §1, §2, §3, §5, §6, §7

Alternaria solani = settings: filamentous fungus Alternaria solani
Protocol: as §1, §2
(§8) Inocula for filamentous fungi are prepared by scraping the surface of stock plates maintained on potato dextrose agar with a moistened sterile dacron swab. The spores and mycelia are then suspended in 10 milliliters of sterile potato dextrose broth and adjusted to 70 percent transmission at 660 nm.
as §5, §6
(§9) Following incubation, the inhibition zones are measured and recorded. The measurements are made from the extreme edge where growth differs from the background zone. […]

Ceratocystis ulmi = settings: filamentous fungus Ceratocystis ulmi
Protocol: as §1, §2, §8, §5, §6, §9

Saccharomyces cerevisiae = test system: Saccharomyces cerevisiae
Protocol: as §1, §2, §3, §4, §5, §6, §7

Cryptococous neoformans = test system: Cryptococous neoformans
Protocol: as §1, §2, §3, §5, §6, §7

| Compound | antifungal activity (Candida albicans) | antifungal activity (Candida neoformans) | antifungal activity (Candida parapsilosis) | antifungal activity (Candida pseudotropicalis) | antifungal activity (Alternaria solani) | antifungal activity (Ceratocystis ulmi) | antifungal activity (Saccharomyces cerevisiae) | antifungal activity (Cryptococous neoformans) |
| --- | --- | --- | --- | --- | --- | --- | --- | --- |
| CCCCCCC(=O)CCCCCC/C=C/C(O)C(O)C(O)C(N)(CO)C(=O)O (stereo not drawn) [Compound IA] | active | active | active | active | very strong antifungal activity | very strong antifungal activity | – | – |
| CCCCCCC(=O)CCCCCC/C=C/C(O)C(O)C(O)C(C)(N)C(=O)O (stereo not drawn) [Compound IB] | active | – | – | – | – | – | active | active |
